# The source made the active and inactive calls. The rule behind the calls is not given here.
# Experiments:
# [1] = molecular target: T1, High affinity choline transporter 1 (Homo sapiens, UniProt Q9GZV3, L531A/V532A); assay: Inhibition of human CHT […] mutant expressed in HEK293 cells assessed as remaining transporter activity in presence of 10 uM [3H]choline by [3H]choline uptake assay; type: cell-based
# Cytochrome P450 2D6 = Cytochrome P450 2D6 (Homo sapiens, UniProt P10635); assay: Inhibition of human CYP2D6; type: ADME
# Chain of Cytochrome P450 2D6 (P10635 whole entry): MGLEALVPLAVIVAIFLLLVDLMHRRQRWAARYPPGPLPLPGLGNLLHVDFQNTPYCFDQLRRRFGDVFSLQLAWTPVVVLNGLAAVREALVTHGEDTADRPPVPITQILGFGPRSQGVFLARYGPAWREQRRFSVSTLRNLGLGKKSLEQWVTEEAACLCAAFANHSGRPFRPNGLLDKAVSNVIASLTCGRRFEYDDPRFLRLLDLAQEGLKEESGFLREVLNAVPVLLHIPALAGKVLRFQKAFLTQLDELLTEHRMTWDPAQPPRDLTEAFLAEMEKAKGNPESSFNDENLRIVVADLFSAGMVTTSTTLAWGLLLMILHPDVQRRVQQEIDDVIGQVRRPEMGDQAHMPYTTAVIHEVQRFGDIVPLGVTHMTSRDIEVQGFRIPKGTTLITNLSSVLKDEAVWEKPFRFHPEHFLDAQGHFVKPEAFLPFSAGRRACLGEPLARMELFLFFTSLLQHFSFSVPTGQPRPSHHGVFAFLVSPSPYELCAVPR
# Plasma = assay: Fraction unbound in mouse plasma by equilibrium dialysis method; type: ADME, cell-free
# Cytochrome P450 1A2 = molecular target: T2, Cytochrome P450 1A2 (Homo sapiens, UniProt P05177); assay: Inhibition of human CYP1A2; type: ADME
# T2 sequence (P05177 whole entry): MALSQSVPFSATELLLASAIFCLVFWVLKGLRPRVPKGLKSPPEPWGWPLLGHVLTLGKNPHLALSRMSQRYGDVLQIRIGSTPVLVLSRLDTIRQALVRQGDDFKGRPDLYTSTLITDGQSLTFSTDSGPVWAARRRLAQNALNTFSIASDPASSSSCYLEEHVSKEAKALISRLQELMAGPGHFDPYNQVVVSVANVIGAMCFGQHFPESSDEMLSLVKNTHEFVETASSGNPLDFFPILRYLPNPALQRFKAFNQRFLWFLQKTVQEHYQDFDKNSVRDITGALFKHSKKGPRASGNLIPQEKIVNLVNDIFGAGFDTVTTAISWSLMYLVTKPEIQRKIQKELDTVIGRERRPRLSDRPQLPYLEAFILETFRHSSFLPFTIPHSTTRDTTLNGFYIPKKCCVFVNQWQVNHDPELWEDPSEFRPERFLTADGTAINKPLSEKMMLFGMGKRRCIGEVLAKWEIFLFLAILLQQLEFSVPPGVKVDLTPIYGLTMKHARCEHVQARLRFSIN
# [2] = Ratio of drug level in brain to plasma in mouse at 1 mg/kg, ip administered as cassette dosing; type: ADME, organism-based; design: dose 1 mg/kg, route intraperitoneal
# Cytochrome P450 3A4 = Cytochrome P450 3A4 (Homo sapiens, UniProt P08684); assay: Inhibition of human CYP3A4; type: ADME
# Chain of Cytochrome P450 3A4 (P08684 whole entry): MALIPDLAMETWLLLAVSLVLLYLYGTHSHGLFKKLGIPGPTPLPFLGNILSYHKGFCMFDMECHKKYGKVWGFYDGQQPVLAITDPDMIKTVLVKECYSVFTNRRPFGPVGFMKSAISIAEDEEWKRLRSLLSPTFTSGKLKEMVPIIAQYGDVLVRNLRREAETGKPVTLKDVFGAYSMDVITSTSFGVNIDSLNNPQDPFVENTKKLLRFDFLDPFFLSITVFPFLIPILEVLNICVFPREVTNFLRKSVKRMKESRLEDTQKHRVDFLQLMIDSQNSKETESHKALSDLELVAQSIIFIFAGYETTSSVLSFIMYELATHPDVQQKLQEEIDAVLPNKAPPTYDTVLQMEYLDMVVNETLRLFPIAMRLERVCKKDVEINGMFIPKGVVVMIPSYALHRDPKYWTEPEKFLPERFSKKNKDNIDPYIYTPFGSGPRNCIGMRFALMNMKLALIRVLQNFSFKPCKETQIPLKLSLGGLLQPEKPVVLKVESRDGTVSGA
# [3] = tested on: T3, High affinity choline transporter 1 (Homo sapiens), Q9GZV3 [L531A,V532A]; assay: Inhibition of human CHT […] mutant expressed in HEK293 cells assessed as remaining transporter activity at 5 uM in presence of 100 nM [3H]choline by [3H]choline uptake assay; type: cell-based
# T3 sequence (whole entry): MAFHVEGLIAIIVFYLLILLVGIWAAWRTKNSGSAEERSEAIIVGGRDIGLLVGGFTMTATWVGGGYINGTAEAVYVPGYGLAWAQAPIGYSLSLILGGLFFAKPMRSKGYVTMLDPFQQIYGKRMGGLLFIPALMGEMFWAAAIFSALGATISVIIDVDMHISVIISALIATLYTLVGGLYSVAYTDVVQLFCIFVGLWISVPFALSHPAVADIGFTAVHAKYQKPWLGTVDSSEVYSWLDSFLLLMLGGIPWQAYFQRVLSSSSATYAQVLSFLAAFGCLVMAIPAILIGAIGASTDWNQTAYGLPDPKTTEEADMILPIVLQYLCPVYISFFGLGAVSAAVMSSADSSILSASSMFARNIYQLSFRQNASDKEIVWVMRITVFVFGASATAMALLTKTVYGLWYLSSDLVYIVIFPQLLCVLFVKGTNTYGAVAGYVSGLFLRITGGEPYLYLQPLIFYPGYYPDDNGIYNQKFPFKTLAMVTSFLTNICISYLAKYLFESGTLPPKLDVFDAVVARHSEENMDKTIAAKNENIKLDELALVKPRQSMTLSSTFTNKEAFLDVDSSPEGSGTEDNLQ
# Brain = assay: Drug level in mouse brain at 1 mg/kg, ip administered as cassette dosing; type: ADME, organism-based; design: dose 1 mg/kg, route intraperitoneal; settings: in vivo
# [4] = tested on: T3, High affinity choline transporter 1 (Homo sapiens), Q9GZV3 [L531A,V532A]; assay: Inhibition of human CHT […] mutant expressed in HEK293 cells assessed as remaining transporter activity at 5 uM in presence of 10 uM [3H]choline by [3H]choline uptake assay; type: cell-based
# Cytochrome P450 2C9 = Cytochrome P450 2C9 (Homo sapiens, UniProt P11712); assay: Inhibition of human CYP2C9; type: ADME
# Chain of Cytochrome P450 2C9 (P11712 whole entry): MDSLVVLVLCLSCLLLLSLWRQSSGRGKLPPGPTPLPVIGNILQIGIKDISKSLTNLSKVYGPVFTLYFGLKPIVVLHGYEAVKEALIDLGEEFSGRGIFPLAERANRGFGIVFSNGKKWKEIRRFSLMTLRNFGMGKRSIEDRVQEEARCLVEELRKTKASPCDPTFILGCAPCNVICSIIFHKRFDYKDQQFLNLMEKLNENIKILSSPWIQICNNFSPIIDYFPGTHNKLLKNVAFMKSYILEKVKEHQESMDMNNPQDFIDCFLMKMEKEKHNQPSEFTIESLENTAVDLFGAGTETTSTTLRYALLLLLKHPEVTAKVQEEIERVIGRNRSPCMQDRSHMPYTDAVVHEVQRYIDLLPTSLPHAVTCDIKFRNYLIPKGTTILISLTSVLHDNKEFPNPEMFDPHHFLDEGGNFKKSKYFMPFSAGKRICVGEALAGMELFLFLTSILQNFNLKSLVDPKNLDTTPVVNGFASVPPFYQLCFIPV
# [5] = Hepatic clearance in mouse liver microsomes; type: ADME
# [6] = molecular target: T1, High affinity choline transporter 1; assay: Inhibition of human CHT […] mutant expressed in HEK293 cells assessed as remaining transporter activity in presence of 100 nM [3H]choline by [3H]choline uptake assay; type: cell-based
# [7] = molecular target: T1, High affinity choline transporter 1; assay: Inhibition of human CHT […] mutant expressed in HEK293 cells by membrane depolarization assay; type: cell-based
# [8] = molecular target: Sodium-dependent dopamine transporter (Homo sapiens) (UniProt Q01959); assay: Inhibition of DAT (unknown origin)
# Chain of Sodium-dependent dopamine transporter (Homo sapiens) (Q01959 whole entry): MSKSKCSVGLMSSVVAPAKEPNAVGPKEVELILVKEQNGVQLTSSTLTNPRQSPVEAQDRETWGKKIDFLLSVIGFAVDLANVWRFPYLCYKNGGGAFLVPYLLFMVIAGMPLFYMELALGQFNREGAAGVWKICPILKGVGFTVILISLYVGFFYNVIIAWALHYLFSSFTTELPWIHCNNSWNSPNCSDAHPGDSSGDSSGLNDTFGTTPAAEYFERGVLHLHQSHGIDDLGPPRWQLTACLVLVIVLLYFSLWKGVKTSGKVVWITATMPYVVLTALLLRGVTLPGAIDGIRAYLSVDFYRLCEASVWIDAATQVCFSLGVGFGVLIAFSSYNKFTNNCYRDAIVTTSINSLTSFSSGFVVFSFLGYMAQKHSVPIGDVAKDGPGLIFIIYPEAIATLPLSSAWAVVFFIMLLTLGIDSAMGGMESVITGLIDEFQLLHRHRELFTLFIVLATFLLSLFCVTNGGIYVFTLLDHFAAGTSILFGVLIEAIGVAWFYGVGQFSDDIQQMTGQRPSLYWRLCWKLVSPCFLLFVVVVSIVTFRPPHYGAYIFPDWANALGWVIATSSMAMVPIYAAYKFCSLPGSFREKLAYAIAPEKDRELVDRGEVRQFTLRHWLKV
SMILES,IC50 [1] [µM],Activity [3] [%],Activity [4] [%],IC50 [6] [µM],also measured
COc1ccc(C(=O)NCc2cc(C(C)C)no2)cc1OCCN1CCCCC1,0.53,38.3,-0.2,0.76,IC50 (Cytochrome P450 2D6): > 30 µM; Fu (Plasma): 0.71; IC50 (Cytochrome P450 1A2): > 30 µM; BPR [2]: 0.07; IC50 (Cytochrome P450 3A4): > 30 µM; Drug uptake (Brain): 1.8 ng/g; IC50 (Cytochrome P450 2C9): > 30 µM; CLhep predicted [5]: 58.4 mL/min/kg
COc1ccc(C(=O)NCc2cc(C(C)C)no2)cc1OCCN1CCCC1,–,50.1,29.8,–,–
CCCN1CCC(Oc2cccc(C(=O)NCCc3ccccc3)c2)CC1,–,–,–,–,IC50 [7]: 4.22 µM
COc1ccc(C(=O)NCc2cc(C(C)C)no2)cc1OCC(C)C,–,99.8,89.4,–,–
COc1ccc(C(=O)NCc2nc(C)cs2)cc1OC1CCN(C(C)C)CC1,1.02,42.2,13.2,3.48,–
COc1ccc(C(=O)NCc2cc(C(C)C)no2)cc1OC1CCN(C)CC1,–,3.1,-0.9,–,IC50 (Cytochrome P450 2D6): > 30 µM; Fu (Plasma): 0.48; inhibition [8]: inactive; IC50 (Cytochrome P450 1A2): > 30 µM; BPR [2]: 0.28; Drug uptake (Brain): 3.3 ng/g; IC50 (Cytochrome P450 2C9): > 30 µM; CLhep predicted [5]: 29.4 mL/min/kg
COc1ccc(C(=O)NCc2cc(C)n(C)n2)cc1OC1CCN(C(C)C)CC1,2.51,49.9,29.4,8.09,–
COc1ccc(C(=O)NCCC2=CCCCC2)cc1OC1CCN(C(C)C)CC1,–,–,–,–,IC50 [7]: 3.16 µM
COc1ccc(C(=O)NCc2cc(C(C)C)no2)cc1OC1CCCC1,–,82,81.3,–,–
COc1ccc(C(=O)NCc2cnn(C)c2)cc1OC1CCN(C(C)C)CC1,–,64.8,47.5,–,–
CC(NC(=O)c1ccc(OC2CCN(Cc3ccccn3)CC2)cc1)c1ccccc1 (centres undefined),–,–,–,–,IC50 [7]: 1.26 µM
COc1ccc(C(=O)NC2CCc3ccccc32)cc1OC1CCN(C(C)C)CC1 (centres undefined),–,–,–,–,IC50 [7]: 3.36 µM
COc1ccc(C(=O)NCc2cc(C(C)C)no2)cc1OC1CCNCC1,–,51.5,18.6,–,–
COc1ccc(C(=O)NCc2ccncn2)cc1OC1CCN(C(C)C)CC1,–,87.7,71.8,–,–
CCn1cc(CNC(=O)c2ccc(OC)c(OC3CCN(C(C)C)CC3)c2)cn1,1.85,41.8,24.8,9.27,–
COc1ccc(C(=O)NC(C)Cc2cnccn2)cc1OC1CCN(C(C)C)CC1 (centres undefined),–,–,–,–,IC50 [7]: 4.47 µM
COc1ccc(C(=O)NCCN2CCCC2)cc1OC1CCN(C(C)C)CC1,1.56,37.4,9.9,2.13,–
COc1ccc(C(=O)NCc2cc(C(C)C)no2)cc1OC1CCCCC1,–,83.2,87.6,–,–
COc1ccc(C(=O)NCc2nc(C)c(C)s2)cc1OC1CCN(C(C)C)CC1,–,–,–,–,IC50 [7]: 0.76 µM
COc1ccc(C(=O)NCc2cc(C(C)C)no2)cc1OC(C)CN(C)C (centres undefined),–,59.7,28.2,–,–
CCc1cc(CNC(=O)c2ccc(OC)c(OC3CCN(C(C)C)CC3)c2)on1,–,–,–,–,IC50 [7]: 0.6 µM
COc1ccc(C(=O)NCc2cc(C(C)C)no2)cc1OCCN1CCOCC1,1.77,36.7,32.1,6.12,–
COc1ccc(C(=O)NCc2cc(C(C)C)no2)cc1OC1CCN(C(C)C)CC1,–,10.9,-2.8,–,IC50 (Cytochrome P450 2D6): > 30 µM; Fu (Plasma): 0.57; IC50 (Cytochrome P450 1A2): > 30 µM; BPR [2]: < 0.06; IC50 (Cytochrome P450 3A4): > 30 µM; Drug uptake (Brain; BLD = below limit of detection): BLD; IC50 (Cytochrome P450 2C9): > 30 µM; CLhep predicted [5]: 80.7 mL/min/kg
COc1ccc(C(=O)NCc2cc(C(C)C)no2)cc1O,–,86.2,99.4,–,–
CCn1nc(C)c(CNC(=O)c2ccc(OC)c(OC3CCN(C(C)C)CC3)c2)c1C,0.91,45.8,15.9,1.58,IC50 (Cytochrome P450 2D6): 6.7 µM; Fu (Plasma): 0.57; IC50 (Cytochrome P450 1A2): > 30 µM; BPR [2]: < 0.05; IC50 (Cytochrome P450 3A4): > 30 µM; Drug uptake (Brain; BLD = below limit of detection): BLD; IC50 (Cytochrome P450 2C9): > 30 µM; CLhep predicted [5]: 22.4 mL/min/kg
COc1ccc(C(=O)NCc2csc(C)n2)cc1OC1CCN(C(C)C)CC1,1.64,42.6,18.9,4.93,IC50 (Cytochrome P450 2D6): > 30 µM; Fu (Plasma): 0.39; IC50 (Cytochrome P450 1A2): 10.3 µM; BPR [2]: 0.19; IC50 (Cytochrome P450 3A4): > 30 µM; Drug uptake (Brain): 1.5 ng/g; IC50 (Cytochrome P450 2C9): > 30 µM; CLhep predicted [5]: 82.4 mL/min/kg
COc1ccc(C(=O)NCc2ccc(C)s2)cc1OC1CCN(C(C)C)CC1,–,76.4,36.7,–,–
COc1ccc(C(=O)NCc2cc(C(C)C)no2)cc1OC1CCCN(C)C1 (centres undefined),4.54,51.7,18.4,1.25,–
COc1ccc(C(=O)NC(C)Cc2ccccn2)cc1OC1CCN(C(C)C)CC1 (centres undefined),1.73,46.3,20.4,4.12,IC50 (Cytochrome P450 2D6): 27.1 µM; Fu (Plasma): 0.35; IC50 (Cytochrome P450 1A2): > 30 µM; BPR [2]: 1.1; IC50 (Cytochrome P450 3A4): 28.2 µM; Drug uptake (Brain): 4 ng/g; IC50 (Cytochrome P450 2C9): > 30 µM; CLhep predicted [5]: 48.8 mL/min/kg

# Source: ChEMBL document CHEMBL3400059, “Synthesis and structure-activity relationships of a series of 4-methoxy-3-(piperidin-4-yl)oxy benzamides as novel inhibitors of the presynaptic choline transporter” (Bioorg Med Chem Lett, 2015)
